The target in assay [1] is T1, Inhibitor of nuclear factor kappa-B kinase subunit epsilon (Homo sapiens) (UniProt Q14164).
T1 sequence (whole entry): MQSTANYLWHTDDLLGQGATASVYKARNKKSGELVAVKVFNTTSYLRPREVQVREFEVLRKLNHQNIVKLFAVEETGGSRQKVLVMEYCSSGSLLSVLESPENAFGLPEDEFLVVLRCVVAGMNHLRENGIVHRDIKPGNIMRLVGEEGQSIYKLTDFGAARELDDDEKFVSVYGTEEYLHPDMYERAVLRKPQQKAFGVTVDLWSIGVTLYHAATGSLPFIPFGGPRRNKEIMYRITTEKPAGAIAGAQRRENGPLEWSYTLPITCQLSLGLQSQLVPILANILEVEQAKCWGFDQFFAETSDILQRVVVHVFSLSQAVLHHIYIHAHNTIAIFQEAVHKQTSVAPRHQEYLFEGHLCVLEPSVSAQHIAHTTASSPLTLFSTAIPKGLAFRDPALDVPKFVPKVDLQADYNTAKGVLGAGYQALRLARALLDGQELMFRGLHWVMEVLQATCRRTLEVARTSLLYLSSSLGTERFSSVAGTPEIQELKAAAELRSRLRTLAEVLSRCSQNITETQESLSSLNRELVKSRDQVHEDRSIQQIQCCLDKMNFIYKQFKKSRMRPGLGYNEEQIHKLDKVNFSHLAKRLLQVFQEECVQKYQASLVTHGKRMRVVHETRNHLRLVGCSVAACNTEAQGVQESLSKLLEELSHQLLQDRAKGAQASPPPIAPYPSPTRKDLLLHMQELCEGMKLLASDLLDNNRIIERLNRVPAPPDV
Kind of assay: Inhibition of human IKKe at 500 nM by HotSpot assay relative to control.

Assay [2] deals with T2, Mitogen-activated protein kinase 13 (Homo sapiens) (UniProt O15264).
T2 sequence (whole entry): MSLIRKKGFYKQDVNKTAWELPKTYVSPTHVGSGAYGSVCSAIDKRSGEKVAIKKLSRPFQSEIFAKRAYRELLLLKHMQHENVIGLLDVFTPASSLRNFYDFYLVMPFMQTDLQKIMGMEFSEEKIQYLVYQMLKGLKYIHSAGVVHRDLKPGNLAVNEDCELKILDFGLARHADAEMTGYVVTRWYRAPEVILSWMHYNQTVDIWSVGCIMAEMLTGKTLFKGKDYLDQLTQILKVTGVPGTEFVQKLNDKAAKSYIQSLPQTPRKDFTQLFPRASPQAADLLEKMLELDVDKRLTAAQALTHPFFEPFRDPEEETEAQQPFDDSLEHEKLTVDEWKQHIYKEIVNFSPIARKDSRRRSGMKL
The assay can be described thus: Inhibition of human MAPK13 at 500 nM by HotSpot assay relative to control.

The target in assay [3] is Protein-tyrosine kinase 6 (Homo sapiens) (UniProt Q13882). The assay can be described thus: Inhibition of human BRK at 500 nM by HotSpot assay relative to control.
Protein-tyrosine kinase 6 (Homo sapiens), sequence (Q13882 whole entry, looked up): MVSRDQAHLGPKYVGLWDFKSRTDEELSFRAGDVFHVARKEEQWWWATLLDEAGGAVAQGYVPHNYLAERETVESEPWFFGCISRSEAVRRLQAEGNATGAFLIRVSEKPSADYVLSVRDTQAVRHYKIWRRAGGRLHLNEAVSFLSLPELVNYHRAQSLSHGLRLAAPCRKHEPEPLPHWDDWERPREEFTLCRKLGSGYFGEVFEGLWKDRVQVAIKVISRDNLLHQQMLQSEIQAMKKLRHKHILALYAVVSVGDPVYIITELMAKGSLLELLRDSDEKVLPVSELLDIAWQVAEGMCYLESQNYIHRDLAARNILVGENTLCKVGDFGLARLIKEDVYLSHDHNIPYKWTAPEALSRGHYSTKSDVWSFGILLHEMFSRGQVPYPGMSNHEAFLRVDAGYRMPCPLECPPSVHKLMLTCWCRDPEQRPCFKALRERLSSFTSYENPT
The target of assay [4] is MAP kinase-interacting serine/threonine-protein kinase 2 (Homo sapiens) (UniProt Q9HBH9). The assay can be described thus: Inhibition of human MNK2 at 500 nM by HotSpot assay relative to control.
MAP kinase-interacting serine/threonine-protein kinase 2 (Homo sapiens), sequence (Q9HBH9 whole entry, looked up): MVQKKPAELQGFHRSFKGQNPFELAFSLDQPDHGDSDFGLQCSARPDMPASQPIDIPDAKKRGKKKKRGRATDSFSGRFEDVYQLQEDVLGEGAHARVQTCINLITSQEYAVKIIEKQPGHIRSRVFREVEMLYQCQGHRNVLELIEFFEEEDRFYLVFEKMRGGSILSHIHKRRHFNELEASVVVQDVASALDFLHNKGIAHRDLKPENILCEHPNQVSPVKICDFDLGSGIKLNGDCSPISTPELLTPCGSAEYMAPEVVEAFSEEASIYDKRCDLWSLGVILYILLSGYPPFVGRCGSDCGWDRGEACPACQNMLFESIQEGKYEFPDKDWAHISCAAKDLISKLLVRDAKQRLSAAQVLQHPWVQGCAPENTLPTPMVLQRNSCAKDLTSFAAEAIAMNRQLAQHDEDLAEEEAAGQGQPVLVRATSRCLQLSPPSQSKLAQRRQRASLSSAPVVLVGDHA
Assay [5] deals with Ephrin type-A receptor 7 (Homo sapiens) (UniProt Q15375). Kind of assay: Inhibition of human EPHA7 at 500 nM by HotSpot assay relative to control.
Ephrin type-A receptor 7 (Homo sapiens), sequence (Q15375 28-998 limits assumed): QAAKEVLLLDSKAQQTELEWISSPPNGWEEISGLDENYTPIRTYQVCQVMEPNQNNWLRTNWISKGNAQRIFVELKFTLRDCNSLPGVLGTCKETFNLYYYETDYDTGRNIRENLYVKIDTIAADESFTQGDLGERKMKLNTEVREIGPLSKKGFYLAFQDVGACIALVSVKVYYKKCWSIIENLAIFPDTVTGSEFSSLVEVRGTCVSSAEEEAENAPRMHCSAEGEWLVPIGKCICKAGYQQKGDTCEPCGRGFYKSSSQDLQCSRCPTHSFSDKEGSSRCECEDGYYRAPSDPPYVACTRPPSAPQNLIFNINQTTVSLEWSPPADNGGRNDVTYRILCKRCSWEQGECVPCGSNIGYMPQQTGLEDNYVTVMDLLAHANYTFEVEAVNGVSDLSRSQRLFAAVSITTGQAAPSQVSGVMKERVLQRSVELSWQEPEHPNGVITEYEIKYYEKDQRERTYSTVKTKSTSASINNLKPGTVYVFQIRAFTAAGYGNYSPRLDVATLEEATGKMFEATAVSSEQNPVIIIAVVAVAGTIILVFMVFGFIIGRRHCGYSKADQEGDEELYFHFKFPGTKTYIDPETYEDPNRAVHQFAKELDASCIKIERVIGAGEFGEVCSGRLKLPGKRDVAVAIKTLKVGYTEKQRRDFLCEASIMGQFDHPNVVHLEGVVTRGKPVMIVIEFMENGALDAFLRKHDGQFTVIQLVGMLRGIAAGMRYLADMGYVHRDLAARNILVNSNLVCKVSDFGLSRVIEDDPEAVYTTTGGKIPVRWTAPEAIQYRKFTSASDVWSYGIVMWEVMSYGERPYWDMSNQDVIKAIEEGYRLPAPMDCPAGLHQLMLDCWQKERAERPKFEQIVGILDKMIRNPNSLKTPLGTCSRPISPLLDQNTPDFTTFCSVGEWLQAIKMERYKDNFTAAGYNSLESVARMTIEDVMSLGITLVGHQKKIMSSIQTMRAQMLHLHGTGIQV
Assay [6] addresses Wee1-like protein kinase (Homo sapiens) (UniProt P30291). The assay can be described thus: Inhibition of human WEE1 at 500 nM by HotSpot assay relative to control.
The target in assay [7] is CDK9/Cyclin K (Homo sapiens) (UniProt P50750+O75909). Kind of assay: Inhibition of human CDK9/cyclin K at 500 nM by HotSpot assay relative to control. Format: protein-complex assay.
Assay [8] addresses Insulin-like growth factor 1 receptor (Homo sapiens, UniProt P08069). The assay can be described thus: Inhibition of inactive form of IGF-1R (unknown origin) kinase domain incubated for 1 hr by [gamma-33P]ATP assay.
Assay [9] concerns the target T3, Dual specificity tyrosine-phosphorylation-regulated kinase 3 (Homo sapiens) (UniProt O43781).
T3 sequence (whole entry): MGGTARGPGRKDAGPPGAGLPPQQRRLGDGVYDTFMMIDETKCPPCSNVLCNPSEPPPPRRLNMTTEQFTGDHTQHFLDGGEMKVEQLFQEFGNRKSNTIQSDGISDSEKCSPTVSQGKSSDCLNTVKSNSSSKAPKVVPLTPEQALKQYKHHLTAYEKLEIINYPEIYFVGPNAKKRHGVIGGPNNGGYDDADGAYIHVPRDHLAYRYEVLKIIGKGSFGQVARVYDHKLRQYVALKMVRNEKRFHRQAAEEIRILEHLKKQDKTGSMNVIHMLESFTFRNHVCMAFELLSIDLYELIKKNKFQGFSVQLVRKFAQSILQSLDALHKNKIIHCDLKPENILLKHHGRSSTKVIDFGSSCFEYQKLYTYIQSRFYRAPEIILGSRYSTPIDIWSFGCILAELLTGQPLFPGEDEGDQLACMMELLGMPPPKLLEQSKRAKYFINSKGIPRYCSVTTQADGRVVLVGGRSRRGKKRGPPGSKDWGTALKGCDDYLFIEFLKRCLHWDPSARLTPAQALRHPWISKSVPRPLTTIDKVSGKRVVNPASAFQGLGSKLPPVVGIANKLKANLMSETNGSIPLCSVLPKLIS
The assay can be described thus: Inhibition of human DYRK3 at 500 nM by HotSpot assay relative to control.

Assay [10] concerns the target Focal adhesion kinase 1 (Homo sapiens) (UniProt Q05397). Kind of assay: Inhibition of human FAK at 500 nM by HotSpot assay relative to control.
In assay [11] the target is Tyrosine-protein kinase JAK2 (Homo sapiens) (UniProt O60674). The assay can be described thus: Inhibition of human JAK2 at 500 nM by HotSpot assay relative to control.
Assay [12] addresses G protein-coupled receptor kinase 5 (Homo sapiens) (UniProt P34947). Kind of assay: Inhibition of human GRK5 at 500 nM by HotSpot assay relative to control.
Assay [13] deals with Rho-associated protein kinase 2 (Homo sapiens) (UniProt O75116). Kind of assay: Inhibition of human ROCK2 at 500 nM by HotSpot assay relative to control.
The target of assay [14] is Serine/threonine-protein kinase WNK3 (Homo sapiens) (UniProt Q9BYP7). Kind of assay: Inhibition of human WNK3 at 500 nM by HotSpot assay relative to control.
In assay [15] the target is Cyclin-dependent kinase 1/cyclin B1 (Homo sapiens) (UniProt P06493+P14635). Kind of assay: Inhibition of human CDK1/cyclin B at 500 nM by HotSpot assay relative to control. Format: protein-complex assay.
Cyclin-dependent kinase 1/cyclin B1 (Homo sapiens), sequence (P06493 whole entry, looked up): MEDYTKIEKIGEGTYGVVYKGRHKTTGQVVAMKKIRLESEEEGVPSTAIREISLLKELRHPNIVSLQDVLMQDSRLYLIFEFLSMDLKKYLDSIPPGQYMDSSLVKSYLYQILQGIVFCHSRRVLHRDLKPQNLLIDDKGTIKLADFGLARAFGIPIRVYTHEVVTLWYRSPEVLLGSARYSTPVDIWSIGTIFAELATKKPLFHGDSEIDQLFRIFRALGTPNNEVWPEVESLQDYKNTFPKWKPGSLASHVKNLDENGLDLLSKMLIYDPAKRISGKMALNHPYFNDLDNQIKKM
Cyclin-dependent kinase 1/cyclin B1 (Homo sapiens), sequence (P14635 whole entry, looked up): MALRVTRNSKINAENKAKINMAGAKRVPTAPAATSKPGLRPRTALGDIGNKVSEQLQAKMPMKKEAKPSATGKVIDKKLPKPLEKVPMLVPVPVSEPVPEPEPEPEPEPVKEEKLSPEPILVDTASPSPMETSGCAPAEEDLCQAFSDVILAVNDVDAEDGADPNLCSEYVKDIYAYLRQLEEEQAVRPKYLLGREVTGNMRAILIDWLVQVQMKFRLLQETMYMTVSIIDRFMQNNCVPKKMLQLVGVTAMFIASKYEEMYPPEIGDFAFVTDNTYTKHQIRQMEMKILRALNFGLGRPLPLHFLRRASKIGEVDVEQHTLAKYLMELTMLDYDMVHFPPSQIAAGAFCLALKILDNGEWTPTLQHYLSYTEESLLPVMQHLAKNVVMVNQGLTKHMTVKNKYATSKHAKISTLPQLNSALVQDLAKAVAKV

Wee1-like protein kinase (Homo sapiens), sequence (P30291 whole entry, looked up): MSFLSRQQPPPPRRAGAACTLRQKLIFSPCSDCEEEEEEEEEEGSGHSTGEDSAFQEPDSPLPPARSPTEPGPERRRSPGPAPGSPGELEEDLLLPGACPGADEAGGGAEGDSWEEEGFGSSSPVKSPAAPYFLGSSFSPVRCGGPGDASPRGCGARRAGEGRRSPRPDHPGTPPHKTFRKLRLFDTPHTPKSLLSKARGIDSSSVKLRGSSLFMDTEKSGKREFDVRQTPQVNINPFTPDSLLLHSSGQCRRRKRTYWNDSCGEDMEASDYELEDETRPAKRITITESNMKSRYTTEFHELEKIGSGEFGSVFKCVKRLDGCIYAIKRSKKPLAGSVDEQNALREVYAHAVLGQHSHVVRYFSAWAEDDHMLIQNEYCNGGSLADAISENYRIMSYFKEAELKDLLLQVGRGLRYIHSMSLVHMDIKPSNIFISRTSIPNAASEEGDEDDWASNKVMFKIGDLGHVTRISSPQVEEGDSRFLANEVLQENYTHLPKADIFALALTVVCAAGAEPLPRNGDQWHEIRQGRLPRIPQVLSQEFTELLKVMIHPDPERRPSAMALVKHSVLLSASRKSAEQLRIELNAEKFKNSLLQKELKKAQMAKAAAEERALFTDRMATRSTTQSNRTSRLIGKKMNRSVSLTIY
G protein-coupled receptor kinase 5 (Homo sapiens), sequence (P34947 whole entry, looked up): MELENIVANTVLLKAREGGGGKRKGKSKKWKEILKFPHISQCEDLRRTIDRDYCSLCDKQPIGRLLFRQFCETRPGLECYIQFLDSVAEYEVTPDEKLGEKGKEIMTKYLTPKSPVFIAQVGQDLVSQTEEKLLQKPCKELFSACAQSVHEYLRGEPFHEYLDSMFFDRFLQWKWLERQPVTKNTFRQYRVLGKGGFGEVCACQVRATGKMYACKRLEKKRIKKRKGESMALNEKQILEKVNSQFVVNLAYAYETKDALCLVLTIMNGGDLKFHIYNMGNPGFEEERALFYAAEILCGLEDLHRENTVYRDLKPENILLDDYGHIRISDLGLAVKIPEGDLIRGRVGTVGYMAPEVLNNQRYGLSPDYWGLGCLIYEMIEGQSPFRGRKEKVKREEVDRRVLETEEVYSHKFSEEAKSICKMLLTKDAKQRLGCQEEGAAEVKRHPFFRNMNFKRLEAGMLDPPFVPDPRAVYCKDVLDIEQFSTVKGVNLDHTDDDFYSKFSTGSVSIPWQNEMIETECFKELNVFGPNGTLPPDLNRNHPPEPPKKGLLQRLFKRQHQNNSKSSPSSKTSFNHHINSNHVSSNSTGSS
Focal adhesion kinase 1 (Homo sapiens), sequence (Q05397 2-1052 limits assumed): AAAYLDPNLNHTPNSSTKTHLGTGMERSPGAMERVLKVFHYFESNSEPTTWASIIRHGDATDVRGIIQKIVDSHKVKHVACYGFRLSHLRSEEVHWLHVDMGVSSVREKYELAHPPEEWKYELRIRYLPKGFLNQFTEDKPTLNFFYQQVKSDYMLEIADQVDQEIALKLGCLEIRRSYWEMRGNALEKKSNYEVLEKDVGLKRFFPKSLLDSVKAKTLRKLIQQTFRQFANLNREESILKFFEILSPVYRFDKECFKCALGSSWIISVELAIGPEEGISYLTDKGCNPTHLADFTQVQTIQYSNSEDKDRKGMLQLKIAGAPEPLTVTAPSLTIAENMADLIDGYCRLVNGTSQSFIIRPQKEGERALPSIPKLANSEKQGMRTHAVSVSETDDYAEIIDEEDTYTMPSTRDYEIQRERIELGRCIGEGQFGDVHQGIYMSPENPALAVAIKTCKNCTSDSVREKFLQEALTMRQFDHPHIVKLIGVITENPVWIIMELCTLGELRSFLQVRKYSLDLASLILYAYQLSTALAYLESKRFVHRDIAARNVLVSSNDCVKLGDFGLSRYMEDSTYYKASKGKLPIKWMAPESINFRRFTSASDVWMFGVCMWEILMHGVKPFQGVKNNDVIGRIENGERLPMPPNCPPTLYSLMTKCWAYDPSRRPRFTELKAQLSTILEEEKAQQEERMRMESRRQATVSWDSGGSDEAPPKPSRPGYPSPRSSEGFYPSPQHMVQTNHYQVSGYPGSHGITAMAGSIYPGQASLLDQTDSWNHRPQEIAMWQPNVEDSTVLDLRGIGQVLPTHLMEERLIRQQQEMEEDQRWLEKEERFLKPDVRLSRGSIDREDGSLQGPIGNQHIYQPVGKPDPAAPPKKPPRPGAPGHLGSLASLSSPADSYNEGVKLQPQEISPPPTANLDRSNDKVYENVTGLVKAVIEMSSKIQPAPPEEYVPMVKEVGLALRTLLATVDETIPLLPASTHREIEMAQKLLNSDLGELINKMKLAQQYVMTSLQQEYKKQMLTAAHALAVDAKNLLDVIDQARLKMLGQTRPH

What is called inhibition is the drop in the measured response relative to a control, in per cent. Broadly, the IC50 is the concentration needed to halve the response being measured. Read a low IC50 as greater potency in that assay. As to `Oc1n[nH]c2nnc(-c3c(-c4ccccc4)nn4ccccc34)cc12`, the inhibition was 0.81% in assay [1]; 3.76% in [2]; 0.52% in [3]; -6.03% in assay [4]; 0.96% in assay [5]; 20.8% in assay [6]. Moreover, the inhibition is -4.88% in assay [7]; 1.62% in assay [9]; -3.2% in assay [10]; 2.36% in [11]; -0.63% in assay [12]; 0.7% in assay [13]. Besides, the inhibition was 0.29% in assay [14] and 9.98% in assay [15]. Moreover, the IC50 in assay [8] came to 10.2 µM.
Turning to `Nc1n[nH]c2nnc(-c3c(-c4ccccc4)nn4ccccc34)cc12`, the inhibition was 4.54% in assay [1]; -0.81% in [2]; 9.19% in assay [3]; 1.7% in assay [4]; 0.55% in assay [5]; 7.57% in assay [6]. Moreover, the inhibition in [7] was 1.48%; in assay [9], 0.17%; in assay [10], 0.84%; in assay [11] it was 2.93%; in assay [12], -6.2%; in assay [13], 10.4%. In addition, the inhibition in assay [14] was -1.28%; in [15], 9.79%. Moreover, half-maximal inhibition in assay [8] (IC50) was put at 32.5 µM.

The values above are taken from ChEMBL document CHEMBL5653615 (J Biol Chem, 2013).
